Test results taken from patent US8491897B2, “Treatment of neuropathic pain using anti-thrombospondin antibodies” (The Board of Trustees of the Leland Stanford Junior …, priority 2007, dated 2013).
Entries after “also recorded” stand apart in the source; their conditions may differ.

Columns and labels:
RGCs = assay: Inhibition of TSP-, astrocyte/ACM- or Hevin-induced synapse formation in RGC cultures; assay type: cell-based, rat
Procedure: RGCs were purified by sequential immunopanning to greater than 99.5% purity from P5 Sprague-Dawley rats (Simonsen Labs, Gilroy, Calif.), as previously described (Barres et. al. (1988) Neuron 9, 791). Approximately 30,000 RGCs were cultured per well in 24-well plates (Falcon) on glass (Assistant) or Aclar 22C (Allied Signal) coverslips coated with poly-D-lysine (10 μg/ml) followed by laminin (2 μg/ml). RGCs were cultured in 600 μl of serum-free medium, modified from Bottenstein and Sato (1979), containing Neurobasal (Gibco), bovine serum albumin, selenium, putrescine, triiodo-thyronine, transferrin, progesterone, pyruvate (1 mM), glutamine (2 mM), CNTF (10 ng/ml), BDNF (50 ng/ml), insulin (5 μg/ml), and forskolin (10 μM). Recombinant human BDNF and CNTF were generously provided by Regeneron Pharmaceuticals.
Purified human platelet TSP1 was from either Sigma or Haematologic Technologies with similar results. Recombinant TSP2 was purified from serum-free medium conditioned by baculovirus-infected insect cells expressing mouse TSP2. Since purified TSP1 is readily available, we used this as the source of TSP in our experiments unless otherwise stated TSPs were used at a concentration of 5 μg/ml unless otherwise specified. RCGs were cultured for 4 days to allow robust process outgrowth and then cultured with TSPs for an additional 6 days. All other reagents were obtained from Sigma.
For preparation of ACM, confluent cultures of astrocytes in 10 cm dishes were washed 3× in PBS and fed with 10 mls RGC medium (without CNTF, BDNF or forskolin). ACM was harvested after 4-6 days of conditioning, filtered through a 0.2 μm syringe filter and concentrated 10× through a 5 KD molecular weight cut-off centrifuge concentrator (Millipore), unless otherwise indicated. ACM was used at a final concentration of 5× unless otherwise indicated. RCGs were cultured for 4 days to allow robust process outgrowth and then cultured with ACM or an astrocyte-feeding layer for an additional 6 days.
For synapse quantification, cultures were fixed for 7 min in 4% paraformaldehyde (PFA), washed 3× in phosphate buffered saline (PBS) and blocked in 100 μL of blocking buffer (50% Antibody Buffer (0.5% bovine serum albumin, 0.5% Triton X-100, 30 mM NaPO4, 750 mM NaCl, 5% normal goat serum, and 0.4% NaN3, pH 7.4), 50% goat serum (NGS), 0.1% Triton-X) for 30 min. After blocking, cover slips were washed 3× in PBS and 100 μL of primary antibody solution was added to each cover slip, consisting of rabbit anti-synaptotagmin (cytosolic domain, Synaptic Systems) and mouse anti-PSD-95 (6G6-1C9 clone, Affinity Bio Reagents) diluted 1:500 in antibody buffer. Coverslips were incubated overnight at 4° C., washed 3× in PBS, and incubated with 100 μL of secondary antibody solution containing Alexa-594 conjugated goat anti-rabbit and Alexa-488 conjugated goat anti-mouse (Molecular Probes) diluted 1:1000 in antibody buffer. Following incubation for 2 h at room temperature, coverslips were washed five times in PBS and mounted in Vectashield mounting medium with DAPI (Vector Laboratories Inc) on glass slides (VWR Scientific). For presynaptic activity assay, rabbit synaptotagmin antiserum was generated by immunization with a peptide corresponding to the N-terminal luminal portion of synaptotagmin. This serum was added at 1:500 to live cultures and incubated for 6 hours. Cells were then washed 3× in DPSB, fixed and stained as above, except for the omission of synaptotagmin antibody from the primary antibody solution.
Mounted coverslips were imaged using Nikon Diaphot and Eclipse epifluorescence microscopes (Nikon). Healthy cells that were at least 2 cell diameters from their nearest neighbor were identified and selected at random by eye using DAPI fluorescence. 8-bit digital images of the fluorescence emission at both 594 nm and 488 nm were recorded for each selected cell using a cooled monochrome CCD camera and SPOT image capture software (Diagnostic Instruments, Inc). […]

[1] = Weight gain and general health of injected pups; assay type: in vivo, mice; settings: 400 mg/kg daily or 200 mg/kg three times a day i.p., vs saline
Procedure: In three independent experiments, two litters of wild type mice (n=3×12, FVB background) were given daily intraperitoneal injections of either a single dose of 400 mg/kg of GBP (Sigma-Aldrich) or a matching volume of saline solution (PBS). In one experiment the mice were injected with 200 mg/kg GBP (n=6) three times a day and the controls received the same volume of saline solution (n=6). […] Samples were blinded during analysis of the barrel cortex plasticity.

NCC1(CC(=O)O)CCCCC1 [Gabapentin, 1-(aminomethyl)cyclohexaneacetic acid]
effect on SD2-induced synapse formation (RGCs): completely inhibited synapse formation; also recorded: inhibited TSP induced synapse formation; also recorded: blocks TSPs synaptogenic effect; also recorded: blocks the synaptogenic activity of SD2
effect on SD2-induced synapses (RGCs): synapse formation was not affected; also recorded: does not decrease synapse numbers
effect on already formed synapses (synapse number) (RGCs): did not decreased the synapse number
effect on synapse formation induced by Hevin (RGCs): does not inhibit the synapse formation; also recorded: did not affect
effect on synaptogenic effect of TSP2 EGF-like domains (RGCs): diminished its synaptogenic effect
effect on TSP and astrocyte-induced synapse formation (RGCs; 32 μM): strongly inhibited both TSP and astrocyte-induced synapse formation
effect on synapse formation induced by TSP1 or TSP2 EGF-like domains (RGCs; 32 μM): blocked the synaptogenic effect; also recorded: reduces the number of synapses formed by RGCs down to background levels
effect on synaptogenic effect of astrocyte conditioned media (ACM) (RGCs; 32 μM): diminished the synaptogenic effect of both rat and mouse ACM; also recorded: able to block all of ACMs synaptogenic activity
weight gain and general health [1]: showed no differences
